The subject of assay [1] is Enterococcus faecium ATCC 35667. The assay is described as follows: Antibacterial activity, dilution susceptibility test (CLSI M07-A10). In kind it is cell-based. As to conditions: ATCC35667.
In assay [2] the test system is Mycobacterium tuberculosis H37Rv strain. In words: Anti-tubercular properties, alamar blue microplate MIC. In kind it is cell-based. As to conditions: 168 h, M. tuberculosis H37Rv, seven days at 37° C., read-out: anti-mycobacterial activity (MIC).
Assay [3] relates to Staphylococcus epidermidis. The assay is described as follows: Antibacterial activity, dilution susceptibility test (CLSI M07-A10). Format: cell-based.
For assay [4], the system named is Enterococcus faecium ATCC 51559 (VRE resistant). The assay is described as above. Format: cell-based.
The next assay has as its target T1, DNA gyrase from E. coli (Escherichia coli, UniProt P0AES4+P0AES6).
T1 construct: purchased Inspiralis
The assay is described as follows: Inhibitory activity on E. coli DNA gyrase (Inspiralis assay). In kind it is biochemical. How it is done:
Inhibitory potencies were investigated utilizing the Inspiralis assay on streptavidin-coated 96-well microtiter plates. First, the plates were rehydrated with buffer (20 mM Tris-HCl with pH 7.6, 0.01% w/v BSA, 0.05% v/v Tween 20, 137 mM NaCl) and the biotinylated oligonucleotide was then immobilized. After washing off the unbound oligonucleotide, the enzyme test was performed. […] Reaction solutions were incubated at 37° C. for 30 min. After that, the TF buffer (50 mM NaOAc with pH 5.0, 50 mM NaCl and 50 mM MgCl2) was added to terminate the enzymatic reaction. After additional incubation for 30 min at rt, during which biotinoligonucleotide-plasmid triplex was formed, the unbound plasmid was washed off using TF buffer and SybrGOLD in T10 buffer (10 mM Tris HCl with pH 8.0 and 1 mM EDTA) was added. The fluorescence was measured with a microplate reader (BioTek Synergy H4, excitation: 485 nm, emission: 535 nm). Initial screening was done at 100 or 10 μM concentration of inhibitors. […] GraphPad Prism software was used to calculate the IC50 values. The result is given as the average value of three independent measurements.

The subject of assay [5] is Staphylococcus aureus ATCC BAA-1556 (MERSA resistant). The assay is described as follows: Antibacterial activity, dilution susceptibility test (CLSI M07-A10). Format: cell-based. As to conditions: ATCCBAA1556.
For assay [6], the system named is Klebsiella pneumonia MTCC 618. The assay is described as above. Format: cell-based. As to conditions: Klebsiella pneumoniae, MTCC618.
Assay [7] relates to Staphylococcus aureus ATCC 29213. Described as above. In kind it is cell-based. As to conditions: ATCC29213.
The test system of assay [8] is Escherichia coli MTCC 443. Described as above. In kind it is cell-based. As to conditions: MTCC443.
Assay [9] deals with Pseudomonas aeruginosa MTCC 741. The assay is described as above. Format: cell-based. As to conditions: MTCC741.
For assay [10], the system named is Bacillus subtilis MTCC 441. The assay is described as above. Format: cell-based. As to conditions: MTCC441.

≈ marks a conversion by molar mass, not a printed value. Where two headings read alike, the source gives them in different places.

Broadly, the MIC is the least concentration at which growth counts as inhibited. A word on the IC50: it is the concentration that inhibits the measured activity by half.

T1 sequence (P0AES4 whole entry, one chain of several): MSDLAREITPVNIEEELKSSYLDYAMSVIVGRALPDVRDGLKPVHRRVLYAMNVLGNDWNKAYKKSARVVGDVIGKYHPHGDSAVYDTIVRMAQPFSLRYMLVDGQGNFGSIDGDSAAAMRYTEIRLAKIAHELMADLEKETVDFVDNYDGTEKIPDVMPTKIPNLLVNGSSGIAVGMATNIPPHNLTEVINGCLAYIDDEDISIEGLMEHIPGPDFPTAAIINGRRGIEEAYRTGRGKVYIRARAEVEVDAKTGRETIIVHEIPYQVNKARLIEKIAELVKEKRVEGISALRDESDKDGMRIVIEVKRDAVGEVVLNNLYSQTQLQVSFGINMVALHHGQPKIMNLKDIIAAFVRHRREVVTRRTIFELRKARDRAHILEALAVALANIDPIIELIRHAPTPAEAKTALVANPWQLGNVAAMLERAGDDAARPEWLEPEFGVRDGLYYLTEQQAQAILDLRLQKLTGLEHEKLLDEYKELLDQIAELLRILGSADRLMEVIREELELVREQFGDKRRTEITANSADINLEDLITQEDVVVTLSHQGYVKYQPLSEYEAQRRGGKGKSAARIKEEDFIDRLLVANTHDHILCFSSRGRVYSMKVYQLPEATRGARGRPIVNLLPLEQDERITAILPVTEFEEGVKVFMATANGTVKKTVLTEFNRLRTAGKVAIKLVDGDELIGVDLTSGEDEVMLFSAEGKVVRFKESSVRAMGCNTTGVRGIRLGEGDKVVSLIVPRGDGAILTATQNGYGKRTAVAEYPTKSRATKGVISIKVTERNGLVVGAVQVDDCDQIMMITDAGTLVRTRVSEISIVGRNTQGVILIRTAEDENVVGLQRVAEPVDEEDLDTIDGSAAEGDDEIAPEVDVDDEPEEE

With `CNc1cc(F)cc2c(/C=C/C(=O)c3ccc(C(=O)O)cc3)c[nH]c12` [Compound 1, (E)-4-(3-(5-fluoro-7-(methylamino)-1H-indol-3-yl)acryloyl)benzoic acid], the MIC came to 1 µg/mL (≈ 2.96 µM) in [1] (Enterococcus faecium ATCC 35667, read-out: MIC); 2 µg/mL (≈ 5.91 µM) in assay [2]; 1 µg/mL (≈ 2.96 µM) in [3] (read-out: MIC); 0.5 µg/mL (≈ 1.48 µM) in assay [4] (Enterococcus faecium ATCC 51559 (VRE resistant), read-out: MIC); 0.75 µg/mL (≈ 2.22 µM) in [5]; 0.75 µg/mL (≈ 2.22 µM) in assay [6] (Klebsiella pneumonia MTCC 618, read-out: MIC). Moreover, the MIC in assay [7] came out at 0.75 µg/mL (≈ 2.22 µM); in assay [8] (Escherichia coli MTCC 443, read-out: MIC), 0.75 µg/mL (≈ 2.22 µM); in assay [9] (Pseudomonas aeruginosa MTCC 741, read-out: MIC), 0.5 µg/mL (≈ 1.48 µM); in assay [10] (Bacillus subtilis MTCC 441, read-out: MIC) it was 0.25 µg/mL (≈ 0.739 µM). Moreover, the IC50 on DNA gyrase from E. coli turned out to be 150 nM.
In the case of `CN[C@H](CC(C)C)C(=O)N[C@H]1C(=O)N[C@@H](CC(N)=O)C(=O)N[C@H]2C(=O)N[C@H]3C(=O)N[C@H](C(=O)N[C@H](C(=O)O)c4cc(O)cc(O)c4-c4cc3ccc4O)[C@H](O)c3ccc(c(Cl)c3)Oc3cc2cc(c3O[C@@H]2O[C@H](CO)[C@@H](O)[C@H](O)[C@H]2O[C@H]2C[C@](C)(N)[C@H](O)[C@H](C)O2)Oc2ccc(cc2Cl)[C@H]1O` [Vancomycin, reference compound], the MIC in [1] (Enterococcus faecium) is 0.5 µg/mL (≈ 0.345 µM); in [3], 1 µg/mL (≈ 0.69 µM); in assay [4] (Enterococcus faecium), greater than 128 µg/mL; in [6], greater than 128 µg/mL; in [8] (Escherichia coli) it was greater than 128 µg/mL; in assay [9] (Pseudomonas aeruginosa), greater than 128 µg/mL. The same compound registered an MIC in [10] (Bacillus subtilis) of 0.5 µg/mL (≈ 0.345 µM).

These data come from patent US11731939B1, “Indole-based chalcone compounds as antibacterial agents” (KING FAISAL UNIVERSITY, priority 2023, dated 2023).
